Data published in the NIST ThermoML archive (doi:10.1021/je700288s).

Assay: mn = molality of the nth substance listed, in mol/kg
Settings: 101 kPa, Liquid; for speed of sound: Sing-around technique in a fixed-path interferometer; for mass density: Vibrating tube method

O=C([O-])CC(O)(CC(=O)O)C(=O)O.[K+] [potassium dihydrogen citrate] + O
Settings | mass density [kg/m3] | speed of sound [m/s]
283.15 K, m1 = 0.0063 | 1000.47 | 1448.8
283.15 K, m1 = 0.0186 | 1001.97 | 1450.1
283.15 K, m1 = 0.0314 | 1003.53 | 1451.5
283.15 K, m1 = 0.0407 | 1004.65 | 1452.5
283.15 K, m1 = 0.0561 | 1006.52 | 1454.2
283.15 K, m1 = 0.0574 | 1006.67 | 1454.3
283.15 K, m1 = 0.0868 | 1010.19 | 1457.2
283.15 K, m1 = 0.0905 | 1010.65 | 1457.9
283.15 K, m1 = 0.1399 | 1016.4 | 1462.9
283.15 K, m1 = 0.1655 | 1019.36 | 1465.4
283.15 K, m1 = 0.284 | 1032.79 | 1477
283.15 K, m1 = 0.396 | 1044.96 | 1487.4
283.15 K, m1 = 0.4766 | 1053.37 | 1494.6
283.15 K, m1 = 0.5861 | 1064.69 | 1504.1
283.15 K, m1 = 0.5922 | 1065.27 | 1504.7
283.15 K, m1 = 0.7578 | 1081.71 | 1518.5
288.15 K, m1 = 0.0063 | 999.861 | 1466.9
288.15 K, m1 = 0.0186 | 1001.34 | 1468.2
288.15 K, m1 = 0.0314 | 1002.87 | 1469.5
288.15 K, m1 = 0.0407 | 1003.98 | 1470.4
288.15 K, m1 = 0.0561 | 1005.82 | 1472
288.15 K, m1 = 0.0574 | 1005.97 | 1472.1
288.15 K, m1 = 0.0868 | 1009.45 | 1475
288.15 K, m1 = 0.0905 | 1009.9 | 1475.4
288.15 K, m1 = 0.1399 | 1015.58 | 1480.1
288.15 K, m1 = 0.1655 | 1018.5 | 1482.5
288.15 K, m1 = 0.284 | 1031.76 | 1493.4
288.15 K, m1 = 0.396 | 1043.8 | 1503.1
288.15 K, m1 = 0.4766 | 1052.13 | 1509.8
288.15 K, m1 = 0.5861 | 1063.34 | 1518.9
288.15 K, m1 = 0.5922 | 1063.9 | 1519.4
288.15 K, m1 = 0.7578 | 1080.19 | 1532.5
293.15 K, m1 = 0.0063 | 998.956 | 1483.1
293.15 K, m1 = 0.0186 | 1000.41 | 1484.3
293.15 K, m1 = 0.0314 | 1001.93 | 1485.5
293.15 K, m1 = 0.0407 | 1003.03 | 1486.4
293.15 K, m1 = 0.0561 | 1004.84 | 1487.9
293.15 K, m1 = 0.0574 | 1004.99 | 1488
293.15 K, m1 = 0.0868 | 1008.42 | 1490.7
293.15 K, m1 = 0.0905 | 1008.87 | 1491
293.15 K, m1 = 0.1399 | 1014.48 | 1495.5
293.15 K, m1 = 0.1655 | 1017.37 | 1497.7
293.15 K, m1 = 0.284 | 1030.49 | 1507.8
293.15 K, m1 = 0.396 | 1042.41 | 1517
293.15 K, m1 = 0.4766 | 1050.65 | 1523.3
293.15 K, m1 = 0.5861 | 1061.76 | 1531.8
293.15 K, m1 = 0.5922 | 1062.33 | 1532.3
293.15 K, m1 = 0.7578 | 1078.48 | 1544.7
298.15 K, m1 = 0.0063 | 997.788 | 1497.3
298.15 K, m1 = 0.0186 | 999.232 | 1498.5
298.15 K, m1 = 0.0314 | 1000.73 | 1499.6
298.15 K, m1 = 0.0407 | 1001.82 | 1500.4
298.15 K, m1 = 0.0561 | 1003.61 | 1501.8
298.15 K, m1 = 0.0574 | 1003.75 | 1501.9
298.15 K, m1 = 0.0868 | 1007.15 | 1504.4
298.15 K, m1 = 0.0905 | 1007.6 | 1504.7
298.15 K, m1 = 0.1399 | 1013.15 | 1508.8
298.15 K, m1 = 0.1655 | 1016 | 1510.9
298.15 K, m1 = 0.284 | 1029 | 1520.5
298.15 K, m1 = 0.396 | 1040.81 | 1529
298.15 K, m1 = 0.4766 | 1048.98 | 1535
298.15 K, m1 = 0.5861 | 1060 | 1543
298.15 K, m1 = 0.5922 | 1060.56 | 1543.5
298.15 K, m1 = 0.7578 | 1076.59 | 1555.2
303.15 K, m1 = 0.0063 | 996.385 | 1509.7
303.15 K, m1 = 0.0186 | 997.809 | 1510.7
303.15 K, m1 = 0.0314 | 999.297 | 1511.8
303.15 K, m1 = 0.0407 | 1000.37 | 1512.5
303.15 K, m1 = 0.0561 | 1002.15 | 1513.8
303.15 K, m1 = 0.0574 | 1002.29 | 1513.9
303.15 K, m1 = 0.0868 | 1005.65 | 1516.3
303.15 K, m1 = 0.0905 | 1006.09 | 1516.6
303.15 K, m1 = 0.1399 | 1011.59 | 1520.5
303.15 K, m1 = 0.1655 | 1014.43 | 1522.4
303.15 K, m1 = 0.284 | 1027.31 | 1531.4
303.15 K, m1 = 0.396 | 1039.02 | 1539.4
303.15 K, m1 = 0.4766 | 1047.12 | 1545
303.15 K, m1 = 0.5861 | 1058.06 | 1552.6
303.15 K, m1 = 0.5922 | 1058.61 | 1553
303.15 K, m1 = 0.7578 | 1074.53 | 1564.2
308.15 K, m1 = 0.0063 | 994.762 | 1520.3
308.15 K, m1 = 0.0186 | 996.176 | 1521.3
308.15 K, m1 = 0.0314 | 997.649 | 1522.3
308.15 K, m1 = 0.0407 | 998.709 | 1523
308.15 K, m1 = 0.0561 | 1000.47 | 1524.2
308.15 K, m1 = 0.0574 | 1000.61 | 1524.3
308.15 K, m1 = 0.0868 | 1003.95 | 1526.5
308.15 K, m1 = 0.0905 | 1004.38 | 1526.8
308.15 K, m1 = 0.1399 | 1009.84 | 1530.4
308.15 K, m1 = 0.1655 | 1012.65 | 1532.3
308.15 K, m1 = 0.284 | 1025.42 | 1540.7
308.15 K, m1 = 0.396 | 1037.05 | 1548.2
308.15 K, m1 = 0.4766 | 1045.1 | 1553.5
308.15 K, m1 = 0.5861 | 1055.95 | 1560.7
308.15 K, m1 = 0.5922 | 1056.5 | 1561.1
308.15 K, m1 = 0.7578 | 1072.31 | 1571.6
